{"source": "paper PMC5943477", "about": "“A Novel Enzyme Portfolio for Red Algal Polysaccharide Degradation in the Marine Bacterium Paraglaciecola hydrolytica S66^T Encoded in a Sizeable Polysaccharide Utilization Locus” (Frontiers in Microbiology, 2018)", "assay_type_in_all_cases": "biochemical", "key": {"[1]": {"biological_target": "T1, Ph1631 (GH16) (Paraglaciecola hydrolytica, UniProt A0A136A0U8)", "T1 construct": "gene AX660_11645; full gene without any predicted signal peptide, pET22b NdeI/XhoI, E. coli BL21(DE3) crude lysate", "T1 sequence (A0A136A0U8 20-293)": "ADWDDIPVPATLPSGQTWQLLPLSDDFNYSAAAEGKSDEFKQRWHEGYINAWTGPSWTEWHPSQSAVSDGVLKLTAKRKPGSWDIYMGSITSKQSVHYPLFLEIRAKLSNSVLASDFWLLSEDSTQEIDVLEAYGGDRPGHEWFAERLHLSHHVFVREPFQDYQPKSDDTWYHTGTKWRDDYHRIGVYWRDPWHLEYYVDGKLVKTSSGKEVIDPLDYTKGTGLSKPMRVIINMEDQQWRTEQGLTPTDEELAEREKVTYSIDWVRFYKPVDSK", "experiment": "TLC of hydrolysis products from agarose, crude recombinant lysate", "conditions": "25 °C overnight, pH 8; agarose 0.05% w/v"}, "[2]": {"biological_target": "T2, Ph1675 (GH16) (Paraglaciecola hydrolytica, UniProt A0A136A0W8)", "T2 construct": "gene AX660_11860; full gene without any predicted signal peptide, pET9a-USER vector (octa-His tag), E. coli BL21(DE3) crude lysate", "T2 sequence (A0A136A0W8 35-349)": "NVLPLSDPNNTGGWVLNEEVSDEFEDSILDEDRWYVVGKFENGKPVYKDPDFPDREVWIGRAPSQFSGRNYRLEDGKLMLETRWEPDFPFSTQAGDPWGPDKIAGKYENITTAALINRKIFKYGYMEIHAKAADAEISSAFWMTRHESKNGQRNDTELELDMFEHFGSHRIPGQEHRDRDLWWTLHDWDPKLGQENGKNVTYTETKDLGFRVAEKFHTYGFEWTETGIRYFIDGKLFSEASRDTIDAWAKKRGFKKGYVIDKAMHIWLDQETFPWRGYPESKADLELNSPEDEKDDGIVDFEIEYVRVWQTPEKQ", "experiment": "FACE (ANTS label) of hydrolysis products, crude recombinant lysate", "conditions": "25 °C overnight, pH 8, lysis buffer with 5 mM CaCl2"}, "[3]": {"biological_target": "T3, Ph1657 (GH42-like) (Paraglaciecola hydrolytica, UniProt A0A136A0V1)", "T3 construct": "gene AX660_11775; full gene without any predicted signal peptide, pET9a-USER vector (octa-His tag), E. coli BL21(DE3) crude lysate", "T3 sequence (A0A136A0V1 21-810)": "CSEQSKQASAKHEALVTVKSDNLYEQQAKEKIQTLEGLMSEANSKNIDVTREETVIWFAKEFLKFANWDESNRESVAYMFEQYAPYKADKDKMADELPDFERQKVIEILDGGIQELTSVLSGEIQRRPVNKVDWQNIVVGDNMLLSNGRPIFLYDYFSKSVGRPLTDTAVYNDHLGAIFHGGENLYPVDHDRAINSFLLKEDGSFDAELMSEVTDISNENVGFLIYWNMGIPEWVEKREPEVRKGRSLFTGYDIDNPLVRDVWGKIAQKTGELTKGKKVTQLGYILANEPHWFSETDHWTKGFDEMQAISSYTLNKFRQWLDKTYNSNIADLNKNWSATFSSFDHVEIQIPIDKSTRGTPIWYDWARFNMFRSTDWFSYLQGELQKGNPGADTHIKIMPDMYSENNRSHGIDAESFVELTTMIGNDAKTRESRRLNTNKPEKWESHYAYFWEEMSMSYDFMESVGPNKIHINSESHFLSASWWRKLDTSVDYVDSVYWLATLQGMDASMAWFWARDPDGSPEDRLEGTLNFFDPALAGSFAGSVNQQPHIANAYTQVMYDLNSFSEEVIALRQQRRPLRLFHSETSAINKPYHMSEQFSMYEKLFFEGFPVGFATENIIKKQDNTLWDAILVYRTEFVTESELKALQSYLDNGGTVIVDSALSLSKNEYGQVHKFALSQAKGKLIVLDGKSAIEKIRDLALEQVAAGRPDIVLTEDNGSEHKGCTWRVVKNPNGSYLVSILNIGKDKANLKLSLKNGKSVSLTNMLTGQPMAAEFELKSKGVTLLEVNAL", "experiment": "FACE (AMAC label) of hydrolysis products, crude recombinant lysate", "conditions": "25 °C overnight, pH 8, oligosaccharide 2 μg/μL"}, "[4]": {"biological_target": "T4, Ph1615 (GH117) (Paraglaciecola hydrolytica, UniProt A0A136A0T3)", "T4 construct": "gene AX660_11560; full gene without any predicted signal peptide, pET9a-USER vector (octa-His tag), E. coli BL21(DE3) crude lysate", "T4 sequence (A0A136A0T3 1-359)": "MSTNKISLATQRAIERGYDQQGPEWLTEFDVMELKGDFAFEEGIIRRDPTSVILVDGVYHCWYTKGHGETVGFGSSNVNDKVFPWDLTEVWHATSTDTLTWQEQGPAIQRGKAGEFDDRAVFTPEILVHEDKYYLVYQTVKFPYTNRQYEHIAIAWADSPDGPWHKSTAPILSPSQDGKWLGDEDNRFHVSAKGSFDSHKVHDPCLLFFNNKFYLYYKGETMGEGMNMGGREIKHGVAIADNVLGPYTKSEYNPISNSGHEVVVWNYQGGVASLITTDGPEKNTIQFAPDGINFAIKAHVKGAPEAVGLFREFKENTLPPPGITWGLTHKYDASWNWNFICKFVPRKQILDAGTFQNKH", "experiment": "TLC of hydrolysis products, crude recombinant lysate", "conditions": "25 °C overnight, pH 8"}, "[5]": {"biological_target": "T5, Ph1664 (GH16) (Paraglaciecola hydrolytica, UniProt A0A136A0V5)", "T5 construct": "gene AX660_11805; full gene without any predicted signal peptide, pET9a-USER vector (octa-His tag), E. coli BL21(DE3) crude lysate", "T5 sequence (A0A136A0V5 20-322)": "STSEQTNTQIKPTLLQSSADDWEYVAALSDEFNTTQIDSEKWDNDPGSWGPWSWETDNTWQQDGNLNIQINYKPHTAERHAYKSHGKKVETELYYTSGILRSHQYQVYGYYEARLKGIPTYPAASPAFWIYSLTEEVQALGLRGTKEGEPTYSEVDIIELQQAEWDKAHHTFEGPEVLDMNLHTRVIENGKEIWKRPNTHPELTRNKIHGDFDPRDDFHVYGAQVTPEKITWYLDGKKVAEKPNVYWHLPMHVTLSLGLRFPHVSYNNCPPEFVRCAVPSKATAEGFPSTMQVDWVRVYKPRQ", "experiment": "FACE (ANTS label) of hydrolysis products from κ-carrageenan and furcellaran, crude recombinant lysate", "conditions": "25 °C overnight, pH 8, 300 mM NaCl, 5 mM MgCl2; polysaccharide 0.05% w/v"}}, "data": [{"smiles": "OC[C@H]1O[C@@H](O[C@H]2[C@H]3OC[C@@H]2O[C@@H](O[C@H]2[C@@H](O)[C@@H](CO)OC(O)[C@@H]2O)[C@H]3O)[C@H](O)[C@@H](O[C@@H]2O[C@H]3CO[C@@H]([C@@H]2O)[C@@H]3O)[C@H]1O", "note": "(stereo partly drawn) [neoagarotetraose]", "values": [{"measurement": "TLC of hydrolysis products from agarose, crude recombinant lysate", "setting": "[1]", "result": "Ph1631 degraded agarose into primarily neoagarotetraose"}]}, {"smiles": "O=S(=O)(O)O[C@@H]1[C@H](O[C@H]2O[C@@H]3CO[C@H]([C@H]2O)[C@H]3O[C@@H]2O[C@H](CO)[C@H](O)[C@H](O[C@H]3O[C@@H]4CO[C@@H]([C@H]4O)[C@H]3O)[C@H]2O)[C@@H](O)C(O)O[C@@H]1CO", "note": "(stereo partly drawn) [β-κ, β-κ tetrasaccharide]", "values": [{"measurement": "FACE (ANTS label) of hydrolysis products, crude recombinant lysate", "setting": "[2]", "result": "it was found to degrade the substrate into the corresponding β- and κ-carrabiose units"}, {"measurement": "FACE (AMAC label) of hydrolysis products, crude recombinant lysate", "setting": "[3]", "result": "when tested on a commercial β-κ tetrasaccharide, this substrate was indeed hydrolyzed into (β) and (κ)"}]}, {"smiles": "OC[C@H]1OC(O)[C@H](O)[C@@H](O[C@@H]2O[C@H]3CO[C@@H]([C@@H]2O)[C@@H]3O)[C@H]1O", "note": "(stereo partly drawn) [neoagarobiose]", "values": [{"measurement": "TLC of hydrolysis products, crude recombinant lysate", "setting": "[4]", "result": "Ph1615 (GH117) was able to hydrolyze neoagarobiose yielding L-AHG and galactose"}]}, {"smiles": "O=S(=O)(O)O[C@@H]1[C@H](O[C@H]2O[C@@H]3CO[C@@H]([C@H]3O)[C@H]2O)[C@@H](O)[C@H](O[C@@H]2[C@@H]3OC[C@H]2O[C@H](O[C@H]2[C@@H](OS(=O)(=O)O)[C@@H](CO)OC(O)[C@@H]2O)[C@@H]3O)O[C@@H]1CO", "note": "(stereo partly drawn) [κ-κ, neo-κ-carratetraose]", "values": [{"measurement": "FACE (ANTS label) of hydrolysis products from κ-carrageenan and furcellaran, cru", "setting": "[5]", "result": "releasing hydrolysis products corresponding to neo-κ-carrabiose (κ), neo-κ-carratetraose (κ-κ)"}]}, {"smiles": "O=S(=O)(O)O[C@@H]1[C@H](O[C@H]2O[C@@H]3CO[C@@H]([C@H]3O)[C@H]2O)[C@@H](O)C(O)O[C@@H]1CO", "note": "(stereo partly drawn) [κ, neo-κ-carrabiose]", "values": [{"measurement": "FACE (ANTS label) of hydrolysis products from κ-carrageenan and furcellaran, cru", "setting": "[5]", "result": "releasing hydrolysis products corresponding to neo-κ-carrabiose (κ), neo-κ-carratetraose (κ-κ)"}]}]}
